Data from patent US20050130925A1, “Method and composition for enhancing PGE1 production in vascular endothelial and smooth muscle cells” (The Board of Regents of the University of Texas System, priority 2003, published 2005).
Where “and” joins values, the source holds several entries; their conditions need not be identical. Equal values may be shown once.

What was measured:
[1] = clinical use; cited from earlier work
[2] = test system: human aortic endothelial cells (HAECs); assay: Prostaglandin production in HAECs with/without fatty acids and AdCOX-1 transfection, EIA (Example II); assay type: cell-based; conditions: for enhancement of PGI2 production: HAECs, fatty acid stimulation (Discussion); for PGE1/PGE2 ratio: fatty acid-stimulated naïve HAECs; for PGE1 production / PGE2 production / PGI2 production: naïve (nontransfected) HAECs, 20 μM fatty acid, 45 minutes
[3] = test system: human coronary artery smooth muscle cells (HCASMCs); assay: Prostaglandin production in HCASMCs with/without fatty acids and AdCOX-1 transfection, EIA (Example II); assay type: cell-based; conditions: for PGE1/PGE2 ratio: fatty acid-stimulated naïve HCASMCs; for increase of PGE1 production by stimulation: naive HCASMCs vs no stimulation; for PGE1 production / PGE2 production / PGI2 production: naïve (nontransfected) HCASMCs, 20 μM fatty acid, 45 minutes
[4] = test system: balloon-injured carotid arteries of New Zealand White rabbits; assay type: in vivo, New Zealand White rabbit; conditions: no vector (PBS), 20 μM fatty acid stimulation
Description: Balloon injury and local delivery of the COX-1 gene to carotid arteries of New Zealand White (NZW) rabbits were done according to a protocol approved by the animal committee at the University of Texas Houston Health Science Center. As described previously^31, rabbit anesthesia was performed prior to each surgery. In brief, a no. 4 catheter introducer was introduced into the right femoral artery of anesthetized rabbits. Heparin at a dose of 150 units/kg was then administered to prevent arterial thrombosis during angioplasty. A balloon catheter (2.5×20 mm, Baxter Healthcare Corporation) was inserted into the femoral introducer and advanced to the right carotid artery with the assist of a guide wire under fluoroscopy. Balloon angioplasty was performed using 5 inflations to 8 atm for 30 second each time. One minute reperfusion was allowed between inflations. After angioplasty, the balloon was retracted 15 mm, and the proximal end of the damaged artery was ligated over the tip of the deflated angioplasty catheter with 2-0 silk over umbilical tape, to prevent further injury. All blood was removed from the damaged artery by repeated flushing with saline through the wire port of the angioplasty catheter. Then the distal portion of the damaged artery was ligated. After removing the remaining saline, 1×10^10 PFU/ml AdCOX, Adnull or 1 ml of PBS were gradually introduced into the isolated artery, respectively. After incubating the virus in the artery for 30 min, the artery was flushed to remove virus or PBS and washed with saline. Finally, all incisions were repaired and the rabbits were monitored until they had recovered from anesthesia. Upon completing of surgery, the cut regions of rabbit were repaired and rabbits were recovered.
Balloon injury and local delivery of the COX-1 gene to carotid arteries of NZW rabbits (n=24) were performed as described above. Eight rabbits were treated with AdCOX, and a like number were respectively treated with Adnull and PBS.
Three days after local gene delivery, balloon-injured rabbits were sacrificed, and their carotid arteries were harvested as 2-cm-long artery rings. Each artery ring was cut open to expose the lumen and then into 6 small pieces. The pieces were washed 3 times with Dulbecco's modified Eagle's medium (DME; Invitrogen) and incubated with DMEM supplemented with 20 μM AA or DGLA and 2% FBS at 37° C. for 45 minutes. In each treatment group, 4 rabbits provided injured arteries for AA stimulation and 4 provided them for DGLA stimulation. Supernatants were collected and used for prostaglandin assays as described above. Each arterial piece was then dried and weighed.

HAEC = assay: Western blot of COX-1 and COX-2 expression in HAEC; assay type: cell-based, human; conditions: normal HAEC, 10 ng/ml for 24 hour
HCASMC = assay: Western blot of COX-1 and COX-2 expression in HCASMC; assay type: cell-based, human; conditions: normal HCASMC, 10 ng/ml for 24 hour
[5] = naïve HCASMCs vs no stimulation

Row | Compound | enhancement of PGI2 production [2] | PGE1/PGE2 ratio [2] | increase of PGI2 production by stimulation (in words) ([2]; naive HAECs vs no stimulation) | PGE1 production [2] | PGE2 production [2] | PGI2 production [2] | PGE1/PGE2 ratio [3] | increase of PGE1 production by stimulation [3] | PGE1 production [3] | PGE2 production [3] | PGI2 production [3] | PGE1 production [4] | PGE2 production [4] | PGI2 production [4] | other results
1 | CCCCC(C)(O)C/C=C/[C@H]1[C@H](O)CC(=O)[C@@H]1CCCCCCC(=O)OC (mixture of isomers) [Misoprostol] |  |  |  |  |  |  |  |  |  |  |  |  |  |  | adverse side effects (including diarrhea and abdominal pain), patients affected [1]: 14-40 % of patients
2 | CCCCC/C=C\C/C=C\C/C=C\C/C=C\CCCC(=O)O [AA, arachidonic acid] | 25% | 0.16 | one third | 1.10 ± 0.41 ng/10^6 cells | 6.17 ± 0.83 ng/10^6 cells | 2.70 ± 0.13 ng/10^6 cells | 0.27 | > 2 fold | 14.04 ± 1.5 ng/10^6 cells | 51.8 ± 2.46 ng/10^6 cells | 37.12 ± 2.54 ng/10^6 cells | 31 ± 19 pg/mg arterial tissue | 74 ± 42 pg/mg arterial tissue | 432 ± 135 pg/mg arterial tissue | PGE1 production, times lower than in DGLA-stimulated counterparts ([2]; AA-stimulated naïve HAECs): > 4 times; increase of PGE2 production by stimulation ([2]; naïve HAECs vs no stimulation): ~2 fold; suppression of PGE1 production by stimulation ([2]; naïve HAECs vs no stimulation): ~24%; PGE1 production, times lower than in DGLA-stimulated counterparts ([3]; AA-stimulated naïve HCASMCs): > 2 times; increase of PGE2 production by stimulation [3, 5]: ~2 fold; increase of PGI2 production by stimulation [3, 5]: ~3 fold
3 | CCCCC/C=C\C/C=C\C/C=C\CCCCCCC(=O)O [DGLA, dihommo-γ-linolenic acid] | 5% | 3.22 and 3 | only slightly | 5.00 ± 0.51 ng/10^6 cells | 1.55 ± 0.37 ng/10^6 cells | 2.15 ± 0.33 ng/10^6 cells | 1.46 and 1.5 | > 4 fold | 32.34 ± 2.41 ng/10^6 cells | 22.05 ± 1.45 ng/10^6 cells | 9.30 ± 1.09 ng/10^6 cells | 47 ± 3.90 pg/mg arterial tissue | 51 ± 20 pg/mg arterial tissue | 443 ± 201 pg/mg arterial tissue | increase of PGE1 production by stimulation ([2]; naive HAECs vs no stimulation): > 3 fold; suppression of PGE2 production by stimulation ([2]; naïve HAECs vs no stimulation): 35-50%; lowering of PGI2 production by stimulation [3, 5]: 28%; suppression of PGE2 production by stimulation [3, 5]: 35-50%
4 | IL-1β: interleukin-1β, used to induce COX-2 in normal cells |  |  |  |  |  |  |  |  |  |  |  |  |  |  | COX-2 induction (immunoblot) (HAEC): capable of prompting COX-2 induction; COX-2 induction (immunoblot) (HCASMC): capable of prompting COX-2 induction
